Experimental data reported in the supplement of paper PMC3493320.

Tested on: NCI-H295R
Assay: IC50 (antiproliferative, ATP content)
Details: 48 h
Procedure, shortened: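 Adrenocortical carcinoma cells were plated at 1500 per well in 1536-well plates in serum-free DMEM with ITS supplement, left overnight, then given library compounds by pin transfer at 8 final concentrations spanning 0.6 nM to 46 µM and held 48 h at 37 °C, 5% CO2. ATP was measured as CellTiter-Glo luminescence after 20 min at room temperature and scaled between vehicle and positive-control wells. A four-parameter logistic model was fitted to each series. The IC50 was taken from these fits, and compounds without a concentration response were recorded as above the top dose.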

Compound: CNC(=O)Oc1cccc2ccccc12
- IC50: > 46 µM

Compound: CCOC(=O)C=C(C)C=CC=C(C)C=Cc1c(C)cc(OC)c(C)c1C
- IC50: > 46 µM

Compound: O=C1C=C3[C@]([C@@]2(F)[C@@H](O)C[C@@]4(C)[C@](C[C@@]5([H])OC(C)(C)O[C@@]45[C@@](CO)=O)([H])[C@@]([H])2C[C@@H]3F)(C)C=C1
- IC50: > 46 µM

Compound: NS(=O)(=O)c1cc2c(cc1C(F)(F)F)NC(Cc1ccccc1)NS2(=O)=O (stereo not drawn)
- IC50: > 46 µM

Compound: C#CCN[C@@H]1CCc2ccccc21.CS(=O)(=O)O
- IC50: > 46 µM

Compound: Cc1[nH]c(=O)c(C#N)cc1-c1ccc2nccn2c1.Cl
- IC50: > 46 µM

Compound: C[C@H](N)C(=O)N[C@@H](C)P(=O)(O)O
- IC50: > 46 µM

Compound: CC(N)CCCC(C)(C)O.Cl (stereo not drawn)
- IC50: > 46 µM

Compound: O=C([O-])[C@H](O)[C@@H](O)[C@H](O)[C@H](O)CO.O=C([O-])[C@H](O)[C@@H](O)[C@H](O)[C@H](O)CO.[Ba+2]
- IC50: > 46 µM

Compound: CNC(C)C(O)c1ccc(O)cc1.Cl (stereo not drawn)
- IC50: > 46 µM

Compound: FC1=CC2=C(O[C@H]([C@@](N)=O)C[C@@]([C@@]3=O)2NC(N3)=O)C=C1
- IC50: > 46 µM

Compound: C#C[C@]1(O)C=C[C@H]2[C@@H]3CCC4=CC(=O)CC[C@@H]4[C@H]3CC[C@@]21CC
- IC50: > 46 µM

Compound: CS(=O)(=O)CCNCc1ccc(-c2ccc3ncnc(Nc4ccc(OCc5cccc(F)c5)c(Cl)c4)c3c2)o1
- IC50: > 46 µM

Compound: CCCCc1nc(Cl)c(CO)n1Cc1ccc(-c2ccccc2-c2nnn[nH]2)cc1
- IC50: > 46 µM

Compound: CC1(C)[C@@H](OC(=O)CCC(=O)[O-])CC[C@]2(C)[C@H]3C(=O)C=C4[C@@H]5C[C@@](C)(C(=O)[O-])CC[C@]5(C)CC[C@@]4(C)[C@]3(C)CC[C@@H]12.[Na+].[Na+]
- IC50: > 46 µM

Compound: N[C@H](CC(=O)O)C(=O)O
- IC50: > 46 µM

Compound: CC(=O)CC(c1ccc([N+](=O)[O-])cc1)c1c(O)c2ccccc2oc1=O (stereo not drawn)
- IC50: > 46 µM

Compound: Cn1c(CCCC(=O)O)nc2cc(N(CCCl)CCCl)ccc21
- IC50: > 46 µM

Compound: O=C(NC(Cc1cc(=O)[nH]c2ccccc12)C(=O)O)c1ccc(Cl)cc1 (stereo not drawn)
- IC50: > 46 µM

Compound: [C@]13([C@@](C(=O)CO)(CC[C@H]1[C@@H]2CCC=4[C@@]([C@H]2[C@H](C3)O)(\C=C/C(C=4)=O)C)O)C
- IC50: > 46 µM

Compound: CCN(CC)CCN1C(=O)CN=C(c2ccccc2F)c2cc(Cl)ccc21
- IC50: > 46 µM

Compound: CCOc1cc(N)c(Cl)cc1C(=O)NCC1CN(Cc2ccc(F)cc2)CCO1.O=C(O)CC(O)(CC(=O)O)C(=O)O (stereo not drawn)
- IC50: > 46 µM

Compound: CC(C)(C)NCC(O)COc1cccc2c1C[C@H](O)[C@H](O)C2 (stereo partly drawn)
- IC50: > 46 µM

Compound: Cc1c(O)c(=O)ccn1C
- IC50: > 46 µM

Compound: O=C(CCCN1CCC(O)(c2ccc(Cl)cc2)CC1)c1ccc(F)cc1
- IC50: > 46 µM

Compound: CCC(=O)c1ccc2c(c1)N(CCCN(C)C)c1ccccc1S2.Cl
- IC50: > 46 µM

Compound: O[C@@H]([C@H](C)NC)[C@@]1=CC=CC=C1.Cl
- IC50: > 46 µM

Compound: CCCCNc1cc(C(=O)O)cc(S(N)(=O)=O)c1Oc1ccccc1
- IC50: > 46 µM

Compound: CCCCCCCCCCCCCCCCCC(=O)OCC(O)CO (stereo not drawn)
- IC50: > 46 µM

Compound: O=C1CCCCC1CN1CCCCC1 (stereo not drawn)
- IC50: > 46 µM

Compound: O.O=C(O)[C@@H]1[C@H]2C[C@H]3c4[nH]c5ccccc5c4CCN3C[C@@H]2CC[C@@H]1O
- IC50: > 46 µM

Compound: COc1ncnc(NS(=O)(=O)c2ccc(N)cc2)c1OC
- IC50: > 46 µM

Compound: CC(C)C(=O)Nc1ccc([N+](=O)[O-])c(C(F)(F)F)c1
- IC50: > 46 µM

Compound: C1CCC(NC2CCCCC2)CC1
- IC50: > 46 µM

Compound: NCCS(=O)(=O)O
- IC50: > 46 µM

Compound: c1cccc2N\C=C/c12
- IC50: > 46 µM

Compound: N#CC1(N2CCCCC2)CCCCC1
- IC50: > 46 µM

Compound: NC[C@@H]1CC[C@@H](N)[C@@H](O[C@H]2[C@H](O)[C@@H](O[C@H]3O[C@H](CO)[C@@H](O)[C@H](N)[C@H]3O)[C@H](N)C[C@@H]2N)O1
- IC50: > 46 µM

Compound: C=C1[C@@H]2CC[C@@H](C2)C1(C)C
- IC50: > 46 µM

Compound: O=C(O)COc1ccccc1/C=N/NC(=O)c1ccncc1
- IC50: > 46 µM

Compound: Cc1ccc(O)c([C@H](CCN(C(C)C)C(C)C)c2ccccc2)c1
- IC50: > 46 µM

Compound: CC/C(=C(/CC)c1ccc(OP(=O)(O)O)cc1)c1ccc(OP(=O)(O)O)cc1
- IC50: > 46 µM

Compound: CC(=O)O[C@H]1CC[C@H]2[C@@H]3CCC4=CC(=O)CCC4=C3C=C[C@]12C
- IC50: > 46 µM

Compound: COc1ccc2c(c1)C(=O)N(CCc1ccc(S(=O)(=O)NC(=O)NC3CCCCC3)cc1)C(=O)C2(C)C
- IC50: > 46 µM

Compound: CCN(CC)CCCC(C)Nc1ccnc2cc(Cl)ccc12.O=P(O)(O)O.O=P(O)(O)O (stereo not drawn)
- IC50: > 46 µM

Compound: CCCN[C@H]1CCc2nc(N)sc2C1
- IC50: > 46 µM

Compound: Cc1ccc2c(c1)C1CN(C)CCC1N2 (stereo not drawn)
- IC50: > 46 µM

Compound: FC(F)OC(F)(F)C(F)Cl (stereo not drawn)
- IC50: > 46 µM

Compound: CC1(C)CO[C@@H](CC(=O)O)CN1
- IC50: > 46 µM

Compound: O=[N+]([O-])c1ccc([As](=O)(O)O)cc1
- IC50: > 46 µM

Compound: CC(C)(C)C(=O)OCOP(=O)(COCCn1cnc2c(N)ncnc21)OCOC(=O)C(C)(C)C
- IC50: > 46 µM

Compound: CC(=O)N[C@@H](CCC(=O)O)C(=O)O
- IC50: > 46 µM

Compound: FC(F)(F)C(Cl)Br (stereo not drawn)
- IC50: > 46 µM

Compound: C[C@H]1CC[C@]2(NC1)O[C@H]1C[C@H]3[C@@H]4CC[C@H]5C[C@@H](O)CC[C@]5(C)[C@H]4CC[C@]3(C)[C@H]1[C@@H]2C.Cl
- IC50: > 46 µM

Compound: c1ccc2c(c1)Sc1ccccc1N2CCN1CCCC1
- IC50: > 46 µM

Compound: O=[C@@](N\C(C([O-])=O)=C/CCCCSC[C@H](N)C(O)=O)[C@@H](C1)C1(C)C.[Na+]
- IC50: > 46 µM

Compound: CC1CCCC(C)N1NC(=O)c1ccc(Cl)c(S(N)(=O)=O)c1 (stereo not drawn)
- IC50: > 46 µM

Compound: OC(C)=O.NC(CNC([C@H](CCCNC(N)=N)N[C@]([C@@H]1CCCN1[C@]([C@H](CSSCCC(N[C@@H](CC4=CC=C(O)C=C4)C3=O)=O)NC([C@H](CC(N)=O)NC([C@@H](NC([C@@H](N3)CC2=CC=CC=C2)=O)CCC(N)=O)=O)=O)=O)=O)=O)=O
- IC50: > 46 µM

Compound: CCCCCCOC(=O)c1cccnc1
- IC50: > 46 µM

Compound: CCS(=O)(=O)CCn1c([N+](=O)[O-])cnc1C
- IC50: > 46 µM

Compound: C[S+](CC[C@H](N)C(=O)O)C[C@H]1O[C@@H](n2cnc3c(N)ncnc32)[C@H](O)[C@@H]1O.[Cl-] (stereo partly drawn)
- IC50: > 46 µM

Compound: CCN(CC)CCOC(=O)C1(c2ccccc2)CCCC1.CCN(CC)CCOC(=O)C1(c2ccccc2)CCCC1.O=S(=O)(O)CCS(=O)(=O)O
- IC50: > 46 µM

Compound: CC(CN1c2ccccc2Sc2cccnc21)N(C)C.Cl (stereo not drawn)
- IC50: > 46 µM

Compound: CCCCCCCCCCCCCCCCCCOCC(O)CO (stereo not drawn)
- IC50: > 46 µM

Compound: CN(Cc1ccccc1)Cc1ccccc1
- IC50: > 46 µM

Compound: Cl.FC(F)(F)c1cccc(C2=CCN(CCc3ccc4ccccc4c3)CC2)c1
- IC50: > 46 µM

Compound: O=C([O-])CCC/C=C\C[C@@H]1[C@@H](/C=C/[C@@H](O)COc2cccc(Cl)c2)[C@H](O)C[C@@H]1O.[Na+]
- IC50: > 46 µM

Compound: CCn1cc(C(=O)O)c(=O)c2cc3c(cc21)OCO3
- IC50: > 46 µM

Compound: CCNc1nc(Cl)nc(NCC)n1
- IC50: > 46 µM

Compound: O=C(O)c1cc(N=Nc2ccc(S(=O)(=O)Nc3ccccn3)cc2)ccc1O
- IC50: > 46 µM

Compound: COc1ccc(C(CN(C)C)C2(O)CCCCC2)cc1 (stereo not drawn)
- IC50: > 46 µM

Compound: CC(C)[C@@H](C)/C=C/[C@@H](C)[C@H]1CC[C@H]2/C(=C/C=C3\C[C@@H](O)CC[C@@H]3C)CCC[C@]12C
- IC50: > 46 µM

Compound: O=C([C@H]([C@]4=CC=CC=C4)CO)O[C@@H]1C[C@@H]3[C@@H]2[C@@H](O2)[C@@H]([N@+]([O-])3C)C1.Br
- IC50: > 46 µM

Compound: CN1C(=O)CC[C@H]1c1cccnc1
- IC50: > 46 µM

Compound: Cl.O=C(Nc1ccccc1)OCC(CN1CCCCC1)OC(=O)Nc1ccccc1 (stereo not drawn)
- IC50: > 46 µM

Compound: Cc1ccc(S(=O)(=O)NC(=O)NC2CCCCCCC2)cc1
- IC50: > 46 µM

Compound: COc1nc(N)nc2c1ncn2[C@@H]1O[C@H](CO)[C@@H](O)[C@@H]1O
- IC50: > 46 µM

Compound: CCCc1ccc(C(=O)O)cc1
- IC50: > 46 µM

Compound: CC(O)CN(C)C (stereo not drawn)
- IC50: > 46 µM

Compound: Cc1ccccc1
- IC50: > 46 µM

Compound: CCCCC(CC)CN1CN(CC(CC)CCCC)CC(C)(N)C1 (stereo not drawn)
- IC50: > 46 µM

Compound: COc1ccc(S(=O)(=O)Nc2nnc(CC(C)C)s2)cc1
- IC50: > 46 µM

Compound: CC1CC(OC(=O)C(O)c2ccccc2)CC(C)(C)C1 (stereo not drawn)
- IC50: > 46 µM

Compound: O=C(O)Cc1ccc(CCNS(=O)(=O)c2ccc(Cl)cc2)cc1
- IC50: > 46 µM

Compound: CC(=O)Nc1ccc(CC(=O)O)cc1
- IC50: > 46 µM

Compound: O=C(C3)C(C(O)=CC(O[C@H]4[C@H](O)[C@@H](O)[C@H](O)[C@@H](CO[C@H]5[C@H](O)[C@H](O)[C@@H](O)[C@H](C)O5)O4)=C2)=C2O[C@@H]3[C@@]1=CC(O)=C(OC)C=C1
- IC50: > 46 µM

Compound: COc1cc2[nH]c(=O)[nH]c(=O)c2cc1OC
- IC50: > 46 µM

Compound: C=CCN1C(=O)C(CC(C)C)NC1=S (stereo not drawn)
- IC50: > 46 µM

Compound: COc1ccc([C@@H]2Sc3ccccc3N(CCN(C)C)C(=O)[C@@H]2OC(C)=O)cc1
- IC50: > 46 µM

Compound: O=C(CCN1CCN(CCO)CC1)N1c2ccccc2Sc2ccc(C(F)(F)F)cc21
- IC50: > 46 µM

Compound: CC(=O)OC[C@H]1O[C@@](COC(C)=O)(O[C@H]2O[C@H](COC(C)=O)[C@@H](OC(C)=O)[C@H](OC(C)=O)[C@H]2OC(C)=O)[C@@H](OC(C)=O)[C@@H]1OC(C)=O
- IC50: > 46 µM

Compound: CCN(CC)C(=O)Nc1ccc(OCC(O)CNC(C)(C)C)c(C(C)=O)c1.Cl (stereo not drawn)
- IC50: > 46 µM

Compound: NP(N)(=O)NC(=O)c1ccc(F)cc1
- IC50: > 46 µM

Compound: CN(C)c1nc(N(C)C)nc(N(C)C)n1
- IC50: > 46 µM

Compound: O=C(NCCc1c[nH]c2ccccc12)c1cccnc1
- IC50: > 46 µM

Compound: Cl.NC1CCN(c2cccc(Cl)n2)CC1
- IC50: > 46 µM

Compound: CC(=O)Nc1ccc(OCC(O)CNC(C)C)cc1 (stereo not drawn)
- IC50: > 46 µM

Compound: Nc1ccc(S(=O)(=O)Nc2cnc3ccccc3n2)cc1
- IC50: > 46 µM
